Source: patent publication US4206215A, “Antimicrobial bis-[4-(substituted-amino)-1-pyridinium]alkanes” (Sterling Drug Inc., priority 1977, dated 1980)
Read-outs that look alike come from different tables or passages of the source.

What was measured:
[1] = test system: K. pneum. 39645; test: In vitro antibacterial activity, MIC (modified Autotiter method); assay type: cell-based, Klebsiella pneumoniae; settings: 18-20 hours at 37° C.; for MIC: Klebsiella pneumoniae, 20 h, read-out: MIC K. pneum. 39645
Procedure, shortened: (§1)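 Compounds are diluted serially by twofold steps in sterile water using the Autotiter, beginning with a 1,000 mcg./ml. solution; addition of inoculated double-strength semisynthetic medium with glucose yields final concentrations between 500 and 0.06 mcg./ml.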

[2] = test system: C. albicans 10231; test: In vitro antifungal activity, MIC (modified Autotiter method); assay type: cell-based, Candida albicans; settings: 18-20 hours at 37° C.; for MIC: Candida albicans, 10231, 20 h, read-out: MIC C. albicans 10231
Procedure, shortened: as §1

[3] = test system: C. albicans Wisc.; test: as above; assay type: cell-based, Candida albicans; settings: 18-20 hours at 37° C.; for MIC: Candida albicans, 20 h, read-out: MIC C. albicans Wisc.
Procedure, shortened: as §1

[4] = test system: A. niger 16404; test: as above; assay type: cell-based, Aspergillus niger; settings: 18-20 hours at 37° C.; for MIC: Aspergillus niger, 16404, 20 h, read-out: MIC A. niger 16404
Procedure, shortened: as §1

[5] = test system: Ps. aerug. MGH-2; test: In vitro antibacterial activity, MIC (modified Autotiter method); assay type: cell-based, Pseudomonas aeruginosa; settings: 18-20 hours at 37° C.; for MIC: Pseudomonas aeruginosa, 20 h, read-out: MIC Ps. aerug. MGH-2
Procedure, shortened: as §1

[6] = test system: T. menta. 9129; test: In vitro antifungal activity, MIC (modified Autotiter method); assay type: cell-based, Trichophyton mentagrophytes; settings: 18-20 hours at 37° C.; for MIC: Trichophyton mentagrophytes, 20 h, read-out: MIC T. menta. 9129
Procedure, shortened: as §1

[7] = test system: P. mirab. MGH-1; test: In vitro antibacterial activity, MIC (modified Autotiter method); assay type: cell-based, Proteus mirabilis; settings: 18-20 hours at 37° C.; for MIC: Proteus mirabilis, 20 h, read-out: MIC P. mirab. MGH-1
Procedure, shortened: as §1

[8] = test system: E. Coli ATCC 8739; test: Effect of serum on bacteriostatic activity (serial tube dilution test); assay type: cell-based, Escherichia coli; settings: for Fold Increase in MIC E. Coli ATCC 8739: 40% vs 0% horse serum; for MIC: Escherichia coli, ATCC8739
Procedure: (§2) Antibacterial effectiveness in the presence of serum was determined for representative examples by the standard serial tube dilution test wherein paired comparisons of minimum inhibitory concentrations (MIC) were determined in the absence and in the presence of heat inactivated (30 min. at 56° C.) horse serum (40%) in the test medium. The results are expressed as the fold increase in MIC (mcg./ml.) versus Staphyloccocus aureus and Escherichia coli caused by the presence of serum and are presented in Table B hereinbelow.

[9] = test system: Herpes simplex type 2 virus; test: Virucidal activity in vitro (plaque inhibition test); assay type: cell-based; settings: 2 mg. of test compound on growth medium
Procedure: Virucidal activity of representative examples against Herpes simplex type 2 virus was determined in vitro employing a procedure similar to the plaque inhibition test for detection of specific inhibitors of DNA-containing viruses published by E. C. Herrmann, Jr., Proc. Soc. Exp. Biol. Med. 107, 142 (1961) wherein 2 mg. of the test compound was placed on the surface of the growth medium.

[10] = test system: young adult male Swiss-Webster strain albino mice; test: Acute oral toxicity (ALD50); assay type: in vivo; settings: for Mortality 7 Days / Mortality 24 Hrs: suspension in 1% G.T.
Procedure: The acute oral toxicity (ALD50) of several representative examples was determined as follows: Groups of 3 young adult male Swiss-Webster strain albino mice were fasted approximately 4 hours before medication and then medicated once orally by stomach tube.

[11] = test system: S. Aureus ATCC 6538; test: Effect of serum on bacteriostatic activity (serial tube dilution test); assay type: cell-based, Staphyloccocus aureus; settings: for Fold Increase in MIC S. Aureus ATCC 6538: 40% vs 0% horse serum; for MIC: Staphylococcus aureus, ATCC6538
Procedure: as §2

[12] = test system: S. pyogen. C203; test: In vitro antibacterial activity, MIC (modified Autotiter method); assay type: cell-based, Streptococcus pyogenes; settings: 18-20 hours at 37° C.; for MIC: Streptococcus pyogenes, 20 h, read-out: MIC S. pyogen. C203
Procedure, shortened: as §1

[13] = test system: S. Aureus Smith; test: as above; assay type: cell-based, Staphylococcus aureus; settings: 18-20 hours at 37° C.; for MIC: Staphylococcus aureus, 20 h, read-out: MIC S. Aureus Smith
Procedure, shortened: as §1

[14] = test system: E. coli Vogel; test: as above; assay type: cell-based, Escherichia coli; settings: 18-20 hours at 37° C.; for MIC: Escherichia coli, 20 h, read-out: MIC E. coli Vogel
Procedure, shortened: as §1

[15] = test system: E. coli AB1932-1; test: as above; assay type: cell-based, Escherichia coli; settings: 18-20 hours at 37° C.; for MIC: Escherichia coli, AB19321, 20 h, read-out: MIC E. coli AB1932-1
Procedure, shortened: as §1

[16] = test system: E. coli 100/B22; test: as above; assay type: cell-based, Escherichia coli; settings: 18-20 hours at 37° C.; for MIC: Escherichia coli, 100/B22, 20 h, read-out: MIC E. coli 100/B22
Procedure, shortened: as §1

[17] = 40% heat inactivated horse serum, read-out: MIC E. Coli ATCC 8739 40% Serum
[18] = read-out: MIC E. Coli ATCC 8739 0% Serum
[19] = 40% heat inactivated horse serum, read-out: MIC S. Aureus ATCC 6538 40% Serum
[20] = read-out: MIC S. Aureus ATCC 6538 0% Serum

SMILES | MIC A. niger 16404 [4] | MIC Ps. aerug. MGH-2 [5] | MIC P. mirab. MGH-1 [7] | Fold Increase in MIC E. Coli ATCC 8739 [8] | MIC [8, 17] | MIC [8, 18] | Virucidal activity against Herpes simplex type 2 virus [9] | Fold Increase in MIC S. Aureus ATCC 6538 [11] | MIC [11, 19] | MIC [11, 20] | MIC S. pyogen. C203 [12] | MIC [1] | MIC [2] | MIC [3] | MIC [5] | MIC [6] | MIC [13] | MIC [14] | MIC [15] | MIC [16] | other results
CCCCCCCNc1cc[n+](CCCCCCCCCCCCCC[n+]2ccc(NCCCCCCC)cc2)cc1 [Example 1D, 1,14-bis-[4-(heptylamino)-1-pyridinium]-tetradecane dibromide] | 3.0 µg/mL | 3.0 µg/mL | 1.54 µg/mL | 16 fold | 25 µg/mL | 1.56 µg/mL | active | 16 fold | 3.12 µg/mL | 0.195 µg/mL | 1.95 µg/mL |  |  |  |  |  |  |  |  |  | MIC K. pneum. 39645 [1]: 0.77 µg/mL; MIC C. albicans 10231 [2]: 1.54 µg/mL; MIC C. albicans Wisc. [3]: 1.54 µg/mL; MIC T. menta. 9129 [6]: 0.77 µg/mL; Mortality 7 Days ([10]; 125 mg/kg oral): 0/3; Mortality 24 Hrs ([10]; 125 mg/kg oral): 0/3; Mortality 7 Days ([10]; 250 mg/kg oral): 0/3; Mortality 24 Hrs ([10]; 250 mg/kg oral): 0/3; Mortality 7 Days ([10]; 500 mg/kg oral): 1/3; Mortality 24 Hrs ([10]; 500 mg/kg oral): 1/3; Mortality 7 Days ([10]; 1000 mg/kg oral): 2/3; Mortality 24 Hrs ([10]; 1000 mg/kg oral): 2/3; 7-Day ALD50 ([10]; oral, suspension in 1% gum tragacanth, 10080 min): 750 mg/kg; MIC S. Aureus Smith [13]: 0.77 µg/mL; MIC E. coli Vogel [14]: 1.54 µg/mL; MIC E. coli AB1932-1 [15]: 3.0 µg/mL; MIC E. coli 100/B22 [16]: 0.77 µg/mL
CCCCCCNc1cc[n+](CCCCCCCCCCCC[n+]2ccc(NCCCCCC)cc2)cc1 [Example 7, 1,12-bis-[4-(hexylamino)-1-pyridinium]dodecane dibromide] | 3.0 µg/mL | 23.8 µg/mL | 6.0 µg/mL | 32 fold | 12.5 µg/mL | 0.39 µg/mL | active | 16 fold | 1.56 µg/mL | 0.1 µg/mL | 1.0 µg/mL |  |  |  |  |  |  |  |  |  | MIC K. pneum. 39645 [1]: 1.5 µg/mL; MIC C. albicans 10231 [2]: 0.74 µg/mL; MIC C. albicans Wisc. [3]: 0.74 µg/mL; MIC T. menta. 9129 [6]: 0.37 µg/mL; MIC S. Aureus Smith [13]: 0.15 µg/mL; MIC E. coli Vogel [14]: 0.37 µg/mL; MIC E. coli AB1932-1 [15]: 0.37 µg/mL; MIC E. coli 100/B22 [16]: 0.37 µg/mL
CCCCCCCCNc1cc[n+](CCCCCC[n+]2ccc(NCCCCCCCC)cc2)cc1 [Example 13, 1,6-bis-[4-(octylamino)-1-pyridinium]hexane dibromide] | 3.9 µg/mL |  | 31.3 µg/mL | 32 fold | 31.2 µg/mL | 1 µg/mL | active | 128 fold | 31.2 µg/mL | 0.25 µg/mL |  | 3.9 µg/mL | 1.95 µg/mL | 1.95 µg/mL | 31.3 µg/mL | 0.5 µg/mL | 0.5 µg/mL | 1.95 µg/mL | 1 µg/mL | 1.95 µg/mL | MIC [12]: 0.5 µg/mL
CCCCCCCNc1cc[n+](CCCCCCCC[n+]2ccc(NCCCCCCC)cc2)cc1 [Example 22, 1,8-bis-[4-(heptylamino)-1-pyridinium]-octanedibromide] |  | 313 µg/mL |  | 8 fold | 3.9 µg/mL | 0.5 µg/mL | active | 16 fold | 3.9 µg/mL | 0.25 µg/mL | 0.49 µg/mL | 1.95 µg/mL | 0.98 µg/mL | 1.95 µg/mL |  | 1.95 µg/mL | 0.39 µg/mL | 1.95 µg/mL | 0.98 µg/mL | 0.98 µg/mL | MIC [4]: 15.6 µg/mL; MIC [7]: 62.5 µg/mL
CCCCCCNc1cc[n+](CCCCCCCCCC[n+]2ccc(NCCCCCC)cc2)cc1 [Example 33, 1,10-bis-[4-(hexylamino)-1-pyridinium]decane dibromide] |  |  |  | 16 fold | 3.9 µg/mL | 0.25 µg/mL | active | 16 fold | 1.95 µg/mL | 0.125 µg/mL |  | 3.9 µg/mL | 1.95 µg/mL | 3.9 µg/mL | 31.3 µg/mL | 1.95 µg/mL | 0.195 µg/mL | 1.95 µg/mL | 0.98 µg/mL | 1.95 µg/mL | MIC [4]: 3.9 µg/mL; MIC [7]: 31.3 µg/mL; MIC [12]: 0.49 µg/mL
Clc1ccc(Nc2cc[n+](CCCCCCCCCC[n+]3ccc(Nc4ccc(Cl)cc4)cc3)cc2)cc1 [Example 79B, 1,10-bis-[4-(p-chlorophenylamino)-1-pyridinium]decane dimethanesulfonate] |  |  |  | 32 fold | 15.6 µg/mL | 0.5 µg/mL | inactive | 32 fold | 7.8 µg/mL | 0.25 µg/mL |  | 3.1 µg/mL | 3.13 µg/mL | 6.25 µg/mL | 62.5 µg/mL | 6.25 µg/mL | 0.4 µg/mL | 1.6 µg/mL | 0.8 µg/mL | 1.6 µg/mL | MIC [4]: 25 µg/mL; MIC [7]: > 125 µg/mL; MIC [12]: 0.4 µg/mL
